The RepoRT retention time repository (doi:10.1021/acs.analchem.2c02893)

assay: RP, Thermo Scientific Acclaim RSLC 120 C18, 100 × 2.1 mm, 2.2 µm, 30 °C, 0.2 mL/min, estimated dead time 1.1 min; A: 90% water + 10% methanol + 0.01% formic acid + 5 mM ammonium formate, pH 3.61; B: methanol + 0.01% formic acid + 5 mM ammonium formate, pH 3.61; gradient (min/%B) 0/1 1/1 2/39 13/99.9 15/99.9 15.1/1 20.1/1; details: stereoisomer not certain

Row | SMILES | LC retention time [min]
1 | CCCCN1CC(=O)N2C(Cc3c([nH]c4ccccc34)C2c2ccc3c(c2)OCO3)C1=O (configuration not stated) [Tadalafil-n-Butyl] | 10.2
2 | CN1CC(=O)N2C(Cc3c([nH]c4ccccc34)C2c2ccc3c(c2)OCO3)C1=O (configuration not stated) [Tadalafil] | 8.26
3 | CC(C)(C)NCC(O)COc1ccc(NC(=O)NC2CCCCC2)cc1 (configuration not stated) [Talinolol] | 6.58
4 | CCC(=C(c1ccccc1)c1ccc(OCCN(C)C)cc1)c1ccccc1 [Tamoxifen] | 11
5 | CCC(c1cccc(O)c1)C(C)CNC (configuration not stated) [Tapentadol-N-Desmethyl] | 5.14
6 | CCC(c1cccc(O)c1)C(C)CN(C)C (configuration not stated) [Tapentadol] | 5.01
7 | CC(C)(C)C(O)(CCc1ccc(Cl)cc1)Cn1cncn1 (configuration not stated) [Tebuconazole] | 10.9
8 | CCc1ccc(C(=O)NN(C(=O)c2cc(C)cc(C)c2)C(C)(C)C)cc1 [Tebufenozide] | 10.4
9 | CCc1nn(C)c(C(=O)NCc2ccc(C(C)(C)C)cc2)c1Cl [Tebufenpyrad] | 12.2
10 | CCOP(=S)(Oc1cnc(C(C)(C)C)nc1)OC(C)C (configuration not stated) [Tebupirimphos] | 12.3
11 | CC(C)N(Cc1ccccc1)C(=O)C(C)(C)C [Tebutame] | 10.2
12 | CNC(=O)N(C)c1nnc(C(C)(C)C)s1 [Tebuthiuron] | 7.25
13 | O=C(NC(=O)c1c(F)cccc1F)Nc1cc(Cl)c(F)c(Cl)c1F [Teflubenzuron] | 12.5
14 | Cc1c(F)c(F)c(COC(=O)C2C(C=C(Cl)C(F)(F)F)C2(C)C)c(F)c1F.Cc1c(F)c(F)c(COC(=O)C2C(C=C(Cl)C(F)(F)F)C2(C)C)c(F)c1F (configuration not stated) [Tefluthrin] | 13.4
15 | CCC1OC(=O)C(C)C(=O)C(C)C(OC2OC(C)CC(N(C)C)C2O)C(C)(OC)CC(C)C(=O)C(C)C2N(CCCCn3cnc(-c4cccnc4)c3)C(=O)OC12C (configuration not stated) [Telithromycin] | 7.25
16 | CCCc1nc2c(C)cc(-c3nc4ccccc4n3C)cc2n1Cc1ccc(-c2ccccc2C(=O)O)cc1 [Telmisartan] | 10.3
17 | CN1C(=O)C(O)N=C(c2ccccc2)c2cc(Cl)ccc21 (configuration not stated) [Temazepam] | 7.94
18 | COP(=S)(OC)Oc1ccc(Sc2ccc(OP(=S)(OC)OC)cc2)cc1 [Temephos] | 12.4
19 | CC(Cn1cnc2c(N)ncnc21)OCP(=O)(O)O (configuration not stated) [Tenofovir] | 2.69
20 | COc1cc2nc(N3CCN(C(=O)C4CCCO4)CC3)nc(N)c2cc1OC (configuration not stated) [Terazosin] | 4.92
21 | Cc1[nH]c(=O)n(C(C)(C)C)c(=O)c1Cl [Terbacil] | 7.33

Row | SMILES | LC retention time [min]
22 | CN(CC=CC#CC(C)(C)C)Cc1cccc2ccccc12 [Terbinafine] | 11
23 | CCOP(=S)(OCC)SCS(=O)(=O)C(C)(C)C [Terbufos sulfone] | 9.01
24 | CCOP(=S)(OCC)SCS(=O)C(C)(C)C (configuration not stated) [Terbufos-sulfoxide] | 9
25 | CCOP(=S)(OCC)SCSC(C)(C)C [Terbufos] | 12.2
26 | CCNc1nc(NC(C)(C)C)nc(OC)n1 [Terbumeton] | 9.16
27 | CC(C)(C)NCC(O)c1cc(O)cc(O)c1 (configuration not stated) [Terbutaline] | 3.11
28 | CC(C)(C)Nc1nc(N)[nH]c(=O)n1 [Terbuthylazine-desethyl-2-hydroxy] | 3.99
29 | CC(C)(C)Nc1nc(N)nc(Cl)n1 [Terbuthylazine-desethyl] | 7.48
30 | CCNc1nc(Cl)nc(NC(C)(C)C)n1 [Terbuthylazine] | 9.36
31 | CCNc1nc(NC(C)(C)C)nc(SC)n1 [Terbutryn] | 10.2
32 | CC(C)N1CCN(c2ccc(OCC3COC(Cn4cncn4)(c4ccc(Cl)cc4Cl)O3)cc2)CC1 (configuration not stated) [Terconazole] | 8.2
33 | CC(C)(C)c1ccc(C(O)CCCN2CCC(C(O)(c3ccccc3)c3ccccc3)CC2)cc1 (configuration not stated) [Terfenadine] | 9.69
34 | Cc1ncc([N+](=O)[O-])n1CCCO [Ternidazole] | 4.21
35 | CC(CC(c1ccccc1)c1ccccc1)NC(C)(C)C (configuration not stated) [Terodiline] | 7.91
36 | CC(C)(C)NCC(O)COc1cccc2c1SCCC2 (configuration not stated) [Tertatolol] | 6.76
37 | CC12CCC(=O)C=C1CCC1C2CCC2(C)C(OC(=O)c3ccccc3)CCC12 (configuration not stated) [Testosterone benzoate] | 13.8
38 | CC12CCC(=O)C=C1CCC1C2CCC2(C)C1CCC2(C)O (stereo not drawn) [Testosterone- 17-alpha-methyl] | 10.4
39 | CCCCNc1ccc(C(=O)OCCN(C)C)cc1 [Tetracaine] | 6.43
40 | COP(=O)(OC)OC(=CCl)c1cc(Cl)c(Cl)cc1Cl [Tetrachlorvinphos (Stirofos)] | 10.6
41 | FC(F)C(F)(F)OCC(Cn1cncn1)c1ccc(Cl)cc1Cl (configuration not stated) [Tetraconazole] | 10.1
42 | CN(C)C1C(=O)C(C(N)=O)=C(O)C2(O)C(=O)C3=C(O)c4c(O)cccc4C(C)(O)C3CC12 (configuration not stated) [Tetracycline] | 4.7

Row | SMILES | LC retention time [min]
43 | O=S(=O)(c1ccc(Cl)cc1)c1cc(Cl)c(Cl)cc1Cl [Tetradifon] | 12.2
44 | CCCCCCCCCCCCOCCOCCOCCOCCO [Tetraethylene glycol monododecyl ether] | 13.5
45 | O=C1NC(=O)C2CC=CCC12 (stereo not drawn) [Tetrahydrophthalimide (cis-) (1.2.3.6-)] | 4.37
46 | CC(C)=CC1C(C(=O)OCN2C(=O)C3=C(CCCC3)C2=O)C1(C)C (configuration not stated) [Tetramethrin] | 12.2
47 | O=C1CN=C(C2=CCCCC2)c2cc(Cl)ccc2N1 [Tetrazepam-Nor] | 10.1
48 | CN1C(=O)CN=C(C2=CCCCC2)c2cc(Cl)ccc21 [Tetrazepam] | 10.5
49 | COCCOc1c(OC)cc(Cc2cnc(N)nc2N)cc1OC [Tetroxoprim] | 4.24
50 | c1ccc2c(c1)CCCC2C1=NCCN1 (configuration not stated) [Tetryzoline] | 4.47
51 | COc1ccc2c3c1OC1C(OC(C)=O)=CCC4C(C2)N(C)CCC314 (configuration not stated) [Thebacon] | 4.47
52 | COc1ccsc1CN(C(=O)CCl)c1c(C)cccc1C [Thenylchlor] | 10.1
53 | c1ccc2[nH]c(-c3cscn3)nc2c1 [Thiabendazole] | 6.15
54 | NC(=O)N=C1SCCN1Cc1ccc(Cl)nc1 [Thiacloprid-amide] | 4.83
55 | N#CN=C1SCCN1Cc1ccc(Cl)nc1 [Thiacloprid] | 5.62
56 | CN1COCN(Cc2cnc(Cl)s2)C1=N[N+](=O)[O-] [Thiamethoxam] | 4.25
57 | COC(=O)c1c(C(F)F)nc(C(F)(F)F)c(C2=NCCS2)c1CC(C)C [Thiazopyr] | 10.7
58 | O=C(Nc1ccccc1)Nc1cnns1 [Thidiazuron] | 7.17
59 | CCSc1ccc2c(c1)N(CCCN1CCN(C)CC1)c1ccccc1S2 [Thiethylperazine] | 10.4
60 | COC(=O)c1sccc1S(=O)(=O)NC(=O)Nc1nc(C)nc(OC)n1 [Thifensulfuron-methyl] | 6.24
61 | CCN(CC)C(=O)SCc1ccc(Cl)cc1 [Thiobencarb] | 11.4
62 | CN(C)C1CSSSC1 [Thiocyclam] | 3.16
